Experimental data reported in patent publication US8552026B2, “Isatin derivatives, medicaments containing the isatin derivatives and method for its preparation” (King Saud University, priority 2011, dated 2013).
In brackets after ≈: the same amount, converted by molar mass.

Tests used:
Test in all cases: In vitro anti-TB activity, agar dilution method
Format in all cases: cell-based
[1] = tested on: Mycobacterium smegmatis (ATCC 35797); conditions: Mycolicibacterium smegmatis, ATCC35797, 35° C., 48 hours, read-out: MIC (μg/ml)/Mycobacterium strain M. smegmatis
Procedure: (§1) The anti-TB activity of the synthesized compound was tested using the agar dilution method, see T. Aboul-Fadl, F. A. Mohammed, E. A. Hassan, Arch. Pharm. Res. 26 (2003) 778-784 and NCCLS Susceptibility Testing of Mycobacteria, Nocardia, and Other Aerobic Actinomycetes; Tentative Standard NCCLS document M24-T2 [ISBN 1-56238-423-6], second ed., NCCLS, 960 West Valley Road, Suite 1400, Wayne, Pa. 2000, 19087-1898, USA.
(§2) The synthesized compound was solubilized in DMSO at a concentration of 1 mg/ml. Appropriate amount was diluted first with 10% molten agar to give a concentration of 200 μg/ml. Further dilutions for the active compound were done to give 100, 50, 25, 12.5, 6.25 and up to 0.625 μg/ml. The agar and the compound solution were mixed thoroughly and the mixture was poured in Petri-dishes on a level surface to result in an agar depth of 3-4 mm and allowed to harden. The incula were prepared by growing overnight culture in Mueller-Hinton broth. The cultures were diluted 1:100. Test organisms were streaked in a radial pattern and plates were incubated at 35° C. for 48 hours. Control experiments consisted of the tested TB strains, DMSO and the growing media were treated in the same manner. Complete […] of growth was observed prior to declaring the compound to be active. The synthesized compound was evaluated for the antimycobacterial activity in vitro again four Mycobacterium strains: Mycobacterium intercellulari (ATCC35743), Mycobacterium xenopi (ATCC 14470), Mycobacterium cheleneo (ATCC 35751) and Mycobacterium smegmatis (ATCC 35797) by the agar dilution method. Isoniazid (INH) was used as a reference drug and control experiments done using a growth media free from drugs or the tested compound. Results of the in vitro antitubercular activity on the tested compound along with standard drug for comparison are given in table 1.

[2] = tested on: Mycobacterium intercellulari (ATCC35743); conditions: for MIC: Mycobacterium, ATCC35743, agar dilution, 35° C., 48 hours, read-out: MIC (μg/ml)/Mycobacterium strain M. intercellulari
Procedure: as §1, §2

[3] = tested on: Mycobacterium xenopi (ATCC 14470); conditions: ATCC14470, 35° C., 48 hours, read-out: MIC (μg/ml)/Mycobacterium strain M. xenopi
Procedure: as §1, §2

[4] = tested on: Mycobacterium cheleneo (ATCC 35751); conditions: ATCC35751, 35° C., 48 hours, read-out: MIC (μg/ml)/Mycobacterium strain M. cheleneo
Procedure: as §1, §2

SMILES | MIC [1] [µg/mL] | MIC [2] [µg/mL] | MIC [3] [µg/mL] | MIC [4] [µg/mL] | potency relative to INH in vitro ([2]; antitubercular activity screening, all four strains, versus first line drug INH) [times]
NNC(=O)c1ccncc1 [INH, Isoniazid, reference compound] | 12.5 (≈ 91.1 µM) | 12.5 (≈ 91.1 µM) | 12.5 (≈ 91.1 µM) | 12.5 (≈ 91.1 µM) | –
CCn1cc(C(=O)NN=C2C(=O)N(Cc3ccccc3)c3ccccc32)c(=O)c2ccc(C)nc21 [R = H; R1 = H, N′-(1-benzyl-2-oxoindolin-3-ylidene)-1-ethyl-1,4-dihydro-7-methyl-4-oxo-1,8-naphthyridine-3-carbohydrazid] | 0.625 (≈ 1.34 µM) | 0.625 (≈ 1.34 µM) | 0.625 (≈ 1.34 µM) | 0.625 (≈ 1.34 µM) | 20
